Molecular target: T1, FsqB (Aspergillus fumigatus, UniProt Q4WD43)
T1 sequence (Q4WD43 1-497): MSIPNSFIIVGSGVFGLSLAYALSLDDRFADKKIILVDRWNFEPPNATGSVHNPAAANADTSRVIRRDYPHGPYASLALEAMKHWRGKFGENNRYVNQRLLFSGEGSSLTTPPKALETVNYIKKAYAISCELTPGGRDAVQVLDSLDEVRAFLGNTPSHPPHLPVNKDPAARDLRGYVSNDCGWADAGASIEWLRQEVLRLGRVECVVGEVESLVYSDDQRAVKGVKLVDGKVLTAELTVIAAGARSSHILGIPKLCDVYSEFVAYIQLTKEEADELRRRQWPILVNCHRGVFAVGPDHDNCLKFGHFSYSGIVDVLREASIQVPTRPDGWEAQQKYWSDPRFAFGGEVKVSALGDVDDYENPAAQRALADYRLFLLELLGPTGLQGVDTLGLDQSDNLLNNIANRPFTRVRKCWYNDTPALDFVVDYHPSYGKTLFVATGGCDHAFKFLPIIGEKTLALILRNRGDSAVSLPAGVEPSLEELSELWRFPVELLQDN
Assay: tryptic digest UHPLC-MS/MS
Format: binding
Details: covalent, bound to cysteine-414

## Cc1cc2nc3c(=O)[nH]c(=O)nc-3n(C[C@H](O)[C@H](O)[C@H](O)COP(=O)(O)OP(=O)(O)OC[C@H]3O[C@@H](n4cnc5c(N)ncnc54)[C@H](O)[C@@H]3O)c2cc1C [FAD]
  tryptic digest UHPLC-MS/MS; flavin fluorescence: presence of FAD, which was found to be covalently bound to cysteine-414

Source: article PMC5049701 (Nature chemical biology, 2016)
